Results on 1 compound are retold here after US20240173333A1, “Treating Alagille Syndrome (ALGS)” (priority 2022, published 2024).

Marks after values point to notes of the source that are not given here.

The subject of this data set is patients with Alagille syndrome (ALGS). The data set can be described thus: ASSERT pruritus responders: TEAEs.

Consider `CCCCC1(CCCC)CN(c2ccccc2)c2cc(SC)c(OCC(=O)N[C@@H](C(=O)N[C@@H](CC)C(=O)O)c3ccc(O)cc3)cc2S(=O)(=O)N1` [odevixibat, 1,1-dioxo-3,3-dibutyl-5-phenyl-7-methylthio-8-(N-{(R)-α-[N-((S)-1-carboxypropyl)carbamoyl]-4-hydroxybenzyl}carbamoylmethoxy)-2,3,4,5-tetrahydro-1,2,5-benzothiadiazepine], for which, where the note is “21 of 28”, the “pruritus responders reporting any TEAE” value is 75%. Besides, where the note is “pruritus responders”, the “TEAEs leading to death or study drug discontinuation” value is on record as “no TEAEs leading to death or study drug discontinuation were reported”. For the same compound, where the note is “pruritus responders, n=28”, the “Any TEAE” value is listed as 21 (75) n (%), the “Any TEAE: Mild” value is 10 (36) n (%), the “Any TEAE: Moderate” value is on record as 8 (29) n (%) and the “Any TEAE: Severe” value is recorded as 3 (11) n (%). For the same compound, for the setting “pruritus responders, n=28”, the “Drug-related TEAE: Abdominal pain” value is 1 (4) n (%), the “Drug-related TEAE: Abdominal pain upper” value is 1 (4) n (%), the “Drug-related TEAE: Blood triglycerides increased” value is given as 1 (4) n (%) and the “Drug-related TEAE: Diarrhea” value is 4 (14) n (%). Besides, for the setting “pruritus responders, n=28”, the “Drug-related TEAE: Feces discolored” value is given as 1 (4) n (%), the “Drug-related TEAE: Frequent bowel movements” value was 1 (4) n (%), the “Drug-related TEAE: Hematemesis” value is reported as 1 (4) n (%) and the “Drug-related TEAE: Hepatic enzyme increased” value is listed as 1 (4) n (%). Further, under “pruritus responders, n=28”, the “Drug-related TEAE: INR increased” value is reported as 1 (4) n (%), the “Drug-related TEAE: Nausea” value is 1 (4) n (%), the “Drug-related TEAE: Vomiting” value is recorded as 2 (7) n (%) and the “Drug-related TEAE: Weight decreased” value is reported as 1 (4) n (%). For the same compound, where the note is “pruritus responders, n=28”, the “Drug-related TEAEs” value is 8 (29) n (%), the “Drug-related serious TEAEs” value is given as 1 (4)^a n (%), the “Serious TEAEs” value is given as 3 (11) n (%) and the “TEAEs leading to discontinuation” value is listed as 0 n (%). Besides, for the setting “pruritus responders, n=28”, the “TEAEs leading to treatment interruption” value was 2 (7) n (%).
